How the values were obtained:
Format in all cases: biochemical
TACE = molecular target: T1, TACE (Homo sapiens, UniProt P78536); test: TACE inhibition experiment (in vitro)
T1 construct: made in house; host or cells: mammalian cells or insect cells

Human MMP1 = molecular target: T2, Human MMP1 (Homo sapiens, UniProt P03956); test: MMP1 inhibition experiment; conditions: read-out: IC50 value MMP-1
T2 construct: purchased Calbiochem 444208
T2 sequence (P03956 100-469): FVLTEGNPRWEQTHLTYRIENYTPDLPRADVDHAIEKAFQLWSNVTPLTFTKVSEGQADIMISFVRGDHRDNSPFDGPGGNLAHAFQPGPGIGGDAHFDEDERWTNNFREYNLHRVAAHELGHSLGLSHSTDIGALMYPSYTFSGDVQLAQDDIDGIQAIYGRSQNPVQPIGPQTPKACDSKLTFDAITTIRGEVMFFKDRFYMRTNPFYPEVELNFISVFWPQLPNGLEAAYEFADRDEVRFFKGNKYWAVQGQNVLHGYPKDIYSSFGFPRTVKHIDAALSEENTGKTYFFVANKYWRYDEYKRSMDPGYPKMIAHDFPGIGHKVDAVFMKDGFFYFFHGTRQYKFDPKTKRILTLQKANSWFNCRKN

Human MMP2 = molecular target: T3, Human MMP2 (Homo sapiens, UniProt P08253); test: MMP2 inhibition experiment; conditions: concentration required for 50% inhibition of enzyme activity; read-out: IC50 value MMP-2
T3 construct: purchased Calbiochem 444213
T3 sequence (P08253 110-660): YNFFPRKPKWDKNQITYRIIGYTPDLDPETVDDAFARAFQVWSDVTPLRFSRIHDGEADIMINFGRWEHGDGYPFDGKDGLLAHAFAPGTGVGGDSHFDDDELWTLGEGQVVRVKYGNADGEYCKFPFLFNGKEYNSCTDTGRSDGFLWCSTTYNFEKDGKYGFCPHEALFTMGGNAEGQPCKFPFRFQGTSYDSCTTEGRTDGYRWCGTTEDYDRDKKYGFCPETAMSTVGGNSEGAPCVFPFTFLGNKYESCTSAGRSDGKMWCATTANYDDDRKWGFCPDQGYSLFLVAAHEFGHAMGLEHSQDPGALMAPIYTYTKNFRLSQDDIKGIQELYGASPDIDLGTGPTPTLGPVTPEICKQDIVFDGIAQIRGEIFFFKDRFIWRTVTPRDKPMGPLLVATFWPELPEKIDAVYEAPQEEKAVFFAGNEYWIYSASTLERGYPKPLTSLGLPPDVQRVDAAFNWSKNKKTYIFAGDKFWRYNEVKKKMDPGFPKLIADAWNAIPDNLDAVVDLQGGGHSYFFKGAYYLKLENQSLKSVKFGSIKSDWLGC

Human MMP3 = molecular target: T4, Human MMP3 (Homo sapiens, UniProt P08254); test: MMP3 inhibition experiment; conditions: concentration required for 50% inhibition of enzyme activity; read-out: IC50 value MMP-3
T4 construct: purchased Calbiochem 444217
How it was run: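 Fluorescence-quenched substrate NFF-3 (MOCAc/Dnp peptide, 20 μM as prepared) cleaved by 5 ng human MMP3 over 5 hours at 37° C, with inhibition measured from substrate fluorescence.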

Human MMP8 = molecular target: T5, Human MMP8 (Homo sapiens, UniProt P22894); test: MMP8 inhibition experiment; conditions: concentration required for 50% inhibition of enzyme activity; read-out: IC50 value MMP-8
T5 construct: purchased Calbiochem 444229
How it was run: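 Human MMP8 activated with APMA for 1 h at 37° C, then incubated with fluorogenic peptide MOCAc-Pro-Leu-Gly-Leu-A2pr(Dnp)-Ala-Arg-NH2 (20 μM stock) for 5 hours at 37° C. Fluorescent substrate cleavage serves as read-out.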

Human MMP9 = molecular target: T6, Human MMP9 (Homo sapiens, UniProt P14780); test: MMP9 inhibition experiment; conditions: read-out: IC50 value MMP-9
T6 construct: purchased Calbiochem 444231

Human MMP13 = molecular target: T7, Human MMP13 (Homo sapiens, UniProt P45452); test: MMP13 inhibition experiment; conditions: concentration required for 50% inhibition of enzyme activity; read-out: IC50 value MMP-13
T7 construct: purchased Chemicon CC068

Human MMP14 = molecular target: T8, Human MMP14 (Homo sapiens, UniProt P50281); test: MMP14 inhibition experiment; conditions: concentration required for 50% inhibition of enzyme activity; read-out: IC50 value MMP-14
T8 construct: purchased Biogenesis or Calbiochem 5980-1461 or 475935
How it was run: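 Fluorescence assay: substrate Dnp-Pro-Cha-Gly-Cys(Me)-His-Ala-Lys(Nma)-NH2 (20 μM before equal-volume mixing) incubated at 37° C for 5 hours with 4 ng human MMP14.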

Human MMP17 = molecular target: T9, Human MMP17 (Homo sapiens, UniProt Q9ULZ9); test: MMP17 inhibition test; conditions: concentration required for 50% inhibition of enzyme activity; read-out: IC50 value MMP-17
T9 construct: purchased Calbiochem 475940
T9 sequence (Q9ULZ9 126-300 limits assumed): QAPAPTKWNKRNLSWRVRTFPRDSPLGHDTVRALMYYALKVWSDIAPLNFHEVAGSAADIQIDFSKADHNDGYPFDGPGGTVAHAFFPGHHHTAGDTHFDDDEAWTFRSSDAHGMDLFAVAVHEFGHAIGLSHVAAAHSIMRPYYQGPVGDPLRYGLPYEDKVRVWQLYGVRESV

T6 sequence (P14780 107-707 limits assumed): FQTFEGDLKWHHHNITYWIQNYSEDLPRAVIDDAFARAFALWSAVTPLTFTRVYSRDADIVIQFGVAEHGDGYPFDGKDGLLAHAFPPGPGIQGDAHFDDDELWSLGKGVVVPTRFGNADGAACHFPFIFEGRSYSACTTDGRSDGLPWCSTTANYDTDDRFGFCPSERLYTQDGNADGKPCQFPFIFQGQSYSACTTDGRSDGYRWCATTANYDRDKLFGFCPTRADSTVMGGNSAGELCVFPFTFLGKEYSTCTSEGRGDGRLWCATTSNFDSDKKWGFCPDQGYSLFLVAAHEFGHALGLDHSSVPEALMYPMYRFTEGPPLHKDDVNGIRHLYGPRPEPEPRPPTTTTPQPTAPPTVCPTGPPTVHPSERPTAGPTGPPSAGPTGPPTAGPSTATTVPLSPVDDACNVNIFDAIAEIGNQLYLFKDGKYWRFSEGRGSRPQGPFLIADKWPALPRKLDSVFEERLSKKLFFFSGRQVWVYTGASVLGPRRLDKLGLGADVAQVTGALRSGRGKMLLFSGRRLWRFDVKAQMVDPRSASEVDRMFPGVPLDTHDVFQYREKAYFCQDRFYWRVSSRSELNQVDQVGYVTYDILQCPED
T4 sequence (P08254 100-272 limits assumed): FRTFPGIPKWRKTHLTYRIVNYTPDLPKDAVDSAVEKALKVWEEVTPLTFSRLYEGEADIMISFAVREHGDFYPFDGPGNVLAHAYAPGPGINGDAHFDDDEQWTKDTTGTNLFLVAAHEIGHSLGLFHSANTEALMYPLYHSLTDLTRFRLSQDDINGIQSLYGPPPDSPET
T1 sequence (P78536 215-824): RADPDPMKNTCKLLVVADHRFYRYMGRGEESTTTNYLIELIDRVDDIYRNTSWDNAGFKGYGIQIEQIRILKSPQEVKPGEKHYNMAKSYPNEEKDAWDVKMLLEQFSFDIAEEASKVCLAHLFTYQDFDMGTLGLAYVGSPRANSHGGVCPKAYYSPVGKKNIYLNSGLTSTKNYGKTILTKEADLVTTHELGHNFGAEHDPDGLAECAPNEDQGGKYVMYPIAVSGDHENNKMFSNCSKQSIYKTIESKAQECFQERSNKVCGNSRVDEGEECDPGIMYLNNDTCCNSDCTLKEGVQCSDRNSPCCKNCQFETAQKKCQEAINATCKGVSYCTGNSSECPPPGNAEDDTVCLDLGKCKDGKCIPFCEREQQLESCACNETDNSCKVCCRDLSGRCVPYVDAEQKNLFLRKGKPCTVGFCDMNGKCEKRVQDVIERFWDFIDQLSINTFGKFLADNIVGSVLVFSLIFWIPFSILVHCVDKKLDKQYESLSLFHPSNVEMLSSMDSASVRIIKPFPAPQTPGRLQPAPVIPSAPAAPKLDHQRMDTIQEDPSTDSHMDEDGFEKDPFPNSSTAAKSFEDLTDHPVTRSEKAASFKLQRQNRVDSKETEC
T5 sequence (P22894 101-467): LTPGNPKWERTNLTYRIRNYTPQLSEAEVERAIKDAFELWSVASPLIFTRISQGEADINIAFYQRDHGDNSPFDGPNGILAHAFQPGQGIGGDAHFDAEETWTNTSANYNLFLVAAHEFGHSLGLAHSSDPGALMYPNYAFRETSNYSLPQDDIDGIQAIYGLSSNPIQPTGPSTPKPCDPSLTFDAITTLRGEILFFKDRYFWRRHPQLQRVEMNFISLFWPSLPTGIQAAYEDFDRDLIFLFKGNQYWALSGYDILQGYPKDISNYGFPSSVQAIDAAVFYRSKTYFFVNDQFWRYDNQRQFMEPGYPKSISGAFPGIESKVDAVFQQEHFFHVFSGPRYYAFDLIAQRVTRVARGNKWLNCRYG

IC50 (TACE) | IC50 (Human MMP1) | IC50 (Human MMP2) | IC50 (Human MMP3) | IC50 (Human MMP8) | IC50 (Human MMP9) | IC50 (Human MMP13) | IC50 (Human MMP14) | IC50 (Human MMP17) | SMILES
0.004 µM | 70 µM | 3.1 µM | 1 µM | 7.2 µM | 55 µM | 6.4 µM | 42 µM | 1.2 µM | Cc1cc(COc2ccc(S(=O)(=O)CC(CCc3cccnc3)N(O)C=O)cc2)c2ccccc2n1 (stereo not drawn) [Example I-56]
0.0042 µM | 60 µM | 40 µM | 7.3 µM | 59.5 µM | 53 µM | 21 µM | 42 µM | 3.5 µM | Cc1cccc(C(CS(=O)(=O)c2ccc(OCc3cc(C)nc4ccccc34)cc2)N(O)C=O)c1 (stereo not drawn) [Example I-22]
0.024 µM | 90 µM | 2 µM | 0.7 µM | 10 µM | 64 µM | 1.4 µM | 48 µM | 0.28 µM | Cc1cc(COc2ccc(S(=O)(=O)CC(C3CCCN(C(=O)OC(C)(C)C)C3)N(O)C=O)cc2)c2ccccc2n1 (stereo not drawn) [Example I-72]
0.014 µM | > 100 µM | 26 µM | 1.7 µM | 18 µM | > 100 µM | 50 µM | > 100 µM | 0.66 µM | CC(=O)N1CCC(C(CS(=O)(=O)c2ccc(OCc3cc(C)nc4ccccc34)cc2)N(O)C=O)CC1 (stereo not drawn) [Example I-73]
0.0031 µM | > 100 µM | 41 µM | 4.8 µM | 50 µM | > 100 µM | 50 µM | > 100 µM | 3.7 µM | CC(=O)N1CCC(=CC(CS(=O)(=O)c2ccc(OCc3cc(C)nc4ccccc34)cc2)N(O)C=O)CC1 (stereo not drawn) [Example I-41]
0.0051 µM | 57 µM | 9 µM | 0.7 µM | 17 µM | 58 µM | 17 µM | 65 µM | 0.58 µM | CCC(CC)C(=O)N1CCC(CC(CS(=O)(=O)c2ccc(OCc3cc(C)nc4ccccc34)cc2)N(O)C=O)C(C)C1 (stereo not drawn) [Example I-64]

The remaining lines, values behind:

SMILES | IC50 (TACE) | IC50 (Human MMP1) | IC50 (Human MMP2) | IC50 (Human MMP3) | IC50 (Human MMP8) | IC50 (Human MMP9) | IC50 (Human MMP13) | IC50 (Human MMP14) | IC50 (Human MMP17)
Cc1ccc(C(CS(=O)(=O)c2ccc(OCc3cc(C)nc4ccccc34)cc2)N(O)C=O)cn1 (stereo not drawn) [Example I-32] | 0.0025 µM | > 100 µM | 18 µM | 2.7 µM | 22 µM | 44 µM | 9 µM | 53 µM | 1.5 µM
Cc1cc(COc2ccc(S(=O)(=O)CC(C=C3CCN(C(=O)C(C)(C)C)CC3)N(O)C=O)cc2)c2ccccc2n1 (stereo not drawn) [Example I-25, N-{1-[1-(2,2-Dimethylpropionyl)piperidin-4-ylidenemethyl]-2-[4-(2-methylquinolin-4-ylmethoxy)benzenesulfonyl]ethyl}-N-hyroxyformamide] | 0.01 µM | 40 µM | 1.3 µM | 0.11 µM | 5 µM | 8 µM | 0.7 µM | 20 µM | 0.12 µM
O=CN(O)C(C=C1CCC(=NO)CC1)CS(=O)(=O)c1ccc(OCc2ccc3ccccc3n2)cc1 (stereo not drawn) [Example I-86] | 0.42 µM | > 100 µM | 5.8 µM | 61 µM | > 100 µM | 70 µM | 22 µM | 70 µM | 31 µM
Cc1cc(COc2ccc(S(=O)(=O)CC(N(O)C=O)C3(C)CCC4(CC3)OCCO4)cc2)c2ccccc2n1 (stereo not drawn) [Example I-47] | 0.03 µM | > 100 µM | 22 µM | 0.6 µM | 15 µM | > 100 µM | 18 µM | 60 µM | 0.4 µM
Cc1cc(COc2ccc(S(=O)(=O)CC(C=C3CCN(C=O)CC3)N(O)C=O)cc2)c2ccccc2n1 (stereo not drawn) [Example I-43] | 0.0031 µM | > 100 µM | 50 µM | 11 µM | 52 µM | > 100 µM | 65 µM | > 100 µM | 4.5 µM
Cc1cc(COc2ccc(S(=O)(=O)CC(C=C3CCN(C(=O)OC(C)(C)C)CC3C)N(O)C=O)cc2)c2ccccc2n1 (stereo not drawn) [Example I-61] | 0.0033 µM | 80 µM | 5 µM | 1.5 µM | 24 µM | 62 µM | 10 µM | 54 µM | 1.8 µM
Cc1cc(COc2ccc(S(=O)(=O)CC(CC3CCN(C(=O)c4ccccc4)CC3)N(O)C=O)cc2)c2ccccc2n1 (stereo not drawn) [Example I-50] | 0.013 µM | 60 µM | 1.4 µM | 0.2 µM | 5.8 µM | 31 µM | 3 µM | 30 µM | 0.2 µM
Cc1cc(COc2ccc(S(=O)(=O)CC(c3cccnc3C)N(O)C=O)cc2)c2ccccc2n1 (stereo not drawn) [Example I-67] | 0.003 µM | > 100 µM | 20 µM | 2.7 µM | 18 µM | > 100 µM | 30 µM | 70 µM | 1.4 µM
Cc1cc(COc2ccc(S(=O)(=O)CC(C=C3CCN(Cc4ccccc4)CC3)N(O)C=O)cc2)c2ccccc2n1 (stereo not drawn) [Example I-45] | 0.005 µM | 85 µM | 1 µM | 0.26 µM | 5 µM | 40 µM | 2 µM | 9 µM | 0.27 µM
O=CN(O)C(C=C1CCC2(CC1)OCCO2)CS(=O)(=O)c1ccc(OCc2ccc3ccccc3n2)cc1 (stereo not drawn) [Example I-83] | 2.5 µM | > 100 µM | 7 µM | 37 µM | > 100 µM | 53 µM | 23 µM | 55 µM | 36 µM
Cc1cc(COc2ccc(S(=O)(=O)CC(C=C3CCOCC3)N(O)C=O)cc2)cc(C)n1 (stereo not drawn) [Example I-115] | 0.14 µM | > 100 µM | 4 µM | 40 µM | 6 µM | > 100 µM | 8 µM | > 100 µM | 42 µM
COCc1cc(COc2ccc(S(=O)(=O)CC(C=C3CCOCC3)N(O)C=O)cc2)cc(C)n1 (stereo not drawn) [Example I-116] | 0.16 µM | > 100 µM | 26 µM | 70 µM | 28 µM | > 100 µM | 39 µM | > 100 µM | 42 µM
Cc1cncc(C(CS(=O)(=O)c2ccc(OCc3cc(C)nc4ccc(F)cc34)cc2)N(O)C=O)c1 (stereo not drawn) [Example I-80] | 0.0045 µM | > 100 µM | 18 µM | 4 µM | 27 µM | > 100 µM | 23 µM | > 100 µM | 7 µM
